According to ChEMBL document CHEMBL1127179, “Synthesis and 5-HT3 receptor agonist activity of arylureas derived from histamine” (Bioorg Med Chem Lett, 1993):

Assays:
[1] = biological target: Serotonin 3 (5-HT3) receptor; assay: Binding affinity for the 5-hydroxytryptamine 3 receptor was evaluated in vitro by examining its ability to displace [3H]-BRL 43694.; assay type: protein-complex assay
[2] = biological target: Serotonin 3 (5-HT3) receptor (Homo sapiens) (UniProt P46098+A5X5Y0+O95264+Q70Z44+Q8WXA8); assay: Tested for 5-hydroxytryptamine 3 receptor antagonist activity by inhibiting the 5-HT evoked Bezold-Jarisch reflex; assay type: functional

SMILES | Log Ki [1] | -Log ED50 [2]
CCOc1ccccc1NC(=O)NCCc1c[nH]cn1 | -7.35 | 7.2
Cn1nc(C(=O)NCCc2c[nH]cn2)c2ccccc21 | -7.84 | 6.9
COc1ccc(F)cc1NC(=O)NCCc1c[nH]cn1 | -7.69 | 7.4
COc1ccccc1NC(=O)NCCc1c[nH]cn1 | -7.55 | 7
NCCc1c[nH]c2ccc(O)cc12 | – | 7.4
COc1cc(F)ccc1NC(=O)NCCc1c[nH]cn1 | -7.39 | 7
COc1ccc(Cl)cc1NC(=O)NCCc1c[nH]cn1 | -8.86 | 6.8
